Data set [1] relates to trypsin and chymotrypsin. In words: Trypsin/chymotrypsin stability assay.
In data set [2] the test system is trypsin and chymotrypsin. The conditions noted are these: pH 8.
The test system of data set [3] is Human fibroblast M1 cells. In words: Nitric Oxide Assay in human fibroblast M1 cells. It counts as cell-based. The method, then:
FIGS. 17A and 17B show dose-response experiments of NO production rate induced by cyclic analogs. Human M1 fibroblasts were incubated with different concentrations of the listed cyclic peptides, or with 50 μM of positive (65-79*0401) or negative (65−79*0402) control peptides. NO production rates were determined using the fluorescent probe 4,5-diaminofluorescein diacetate (DAF-2DA) (See Ling et al., Arthritis Res Ther 2007, 9, R5; Ling et al., J. J Immunol 2007, 179, 6359; Ling et al., Arthritis Rheum 2006, 54, 3423).
Nitric Oxide Assay. Human fibroblast M1 cells were plated at a density of 1×10^5 cells per well in 96-well plates the day prior to the Nitric Oxide assay. To determine the rate of NO production in fibroblast, cells were first loaded with 20 μM of the fluorescent NO probe 4,5-diaminofluorescein diacetate (DAF-2DA), incubated in the dark at 37° C. for 1 hour and washed in 100 μL of DMEM/phenol red-free medium. The fluorescence level was recorded every 5 minutes over a period of 500 minutes, using a Fusion αHT system (PerkinElmer Life Sciences) at an excitation wavelength of 488 nm and emission wavelength of 515 nm. The NO production rate is expressed as the mean±SEM fluorescence units per minute.

The subject of data set [4] is antioxidative signaling pathway. The note with it: read-out: IC50 as activator of antioxidative signaling pathway; cited from earlier work.
The subject of another data set is CD8+ and CD8− DC. The data set is described as follows: Cytokine production by splenic DC subsets (Luminex). It counts as cell-based, mouse. The note with it: CD11c+CD8− DCs; 50 μg/ml peptide. As for the experimental part: Splenic CD8+ and CD8− DC were isolated from DBA/1 mice as above and cultured in 96-well plates over time in the presence or absence of ISL-positive (65-79*0401) or ISL-negative (65-79*0402) peptides (50 μg/ml). At various time points thereafter, supernatants were collected and assayed for cytokine content, using the Luminex platform.
DBA/1 splenic unfractionated CD11c+ DCs (CD11c+), or their purified CD11c+CD8+ DCs (CD8+) or CD11c+CD8− DCs (CD8−) subsets were cultured with the ISL 65-79*0401 or ISL-negative control 65-79*0402 or medium. Supernatants were collected at different time points and assayed for cytokine content using a Luminex platform.
To determine the rate of NO production, cells were loaded with 20 μM of the fluorescent NO probe 4,5-diaminofluorescein diacetate (DAF-2DA) and the fluorescence level was recorded every 5 minutes over a period of 500 minutes using a Fusion αHT system (PerkinElmer Life Sciences) at an excitation wavelength of 488 nm and emission wavelength of 515 nm. To determine IDO enzymatic activity, the generation of its product, kynurenine was measured (Takikawa et al. 1988. J Biol Chem 263:2041-2048.; herein incorporated by reference in its entirety). Cytokine concentrations were measured in cell culture supernatants using a Luminex platform (Millipore Corporation, Danvers, Mass.). In some experiments, cytokines were determined using ELISA (Quantikine®, R&D Systems, Minneapolis, Minn.) following the manufacture's instruction.

The next data set deals with Th17 cells. In words: ISL polarizing effect in vivo (CII in CFA immunization). More on the design: species or system DBA/1 mice. The conditions noted are these: 10 μg co-administered with CII in CFA, footpad; day 7. As for the experimental part: (A) DBA/1 mice were immunized with CII in CFA in the presence of PBS, 65-79*0401 or 65-79*0402. On day 7, cells from draining lymph nodes were isolated, cultured for 6 hours with PMA, Ionomycin and Brefeldin A and then stained with anti-mouse CD4, IL17A and IFN-γ as above. On the left: Representative dot plots showing percentages of IL17A+ and IFN-γ+ cells obtained from gated CD4+ cells. On the right, bar graphs showing results as mean±SD of duplicate experiments. (B) DBA/1 and CII-TCR Tg mice were immunized as in (A). On day 7, splenic cells were isolated and cultured with the synthetic peptide CII260-267 (5 μg/ml). Supernatants were collected every 24 hours and assayed for IL-17 levels by ELISA.
Mice were injected subcutaneously in the footpad with 100 μg of chicken collagen type II (CII) (Chondrex, Inc, Redmond, Wash.) emulsified in CFA (4 mg/ml). The inoculums contained 10 μg of either ISL-positive 65-79*0401 or ISL-negative 65-79*0402 ligands in PBS, or an equal volume of PBS alone. Animals were sacrificed 7 days after immunization. For Th17 quantification studies, inguinal and popliteal lymph nodes were collected and single cell suspensions were prepared. Unfractionated lymph node cells were cultured with PMA, Ionomycin and Brefeldin A for 6 hours as above. Cells were stained with FITC anti-mouse CD4 or isotype controls, followed by fixation and permeabilization using a Cytofix-Cytoperm™ kit. After permeabilization, intracellular staining was performed using PE-conjugated anti-mouse IL17A and APC-conjugated anti-mouse IFN-γ and cells were analyzed by flow cytometry as above. To measure IL-17 production, splenocytes from mice immunized as above were stimulated in vitro with 5 μg of CII259-273 peptide. At different time points thereafter, supernatants were collected and assayed for IL-17 by ELISA as above.

As a reminder, the IC50 is the concentration at which inhibition is half-maximal.

“Also recorded” adds a separate entry of the source. Numbered stars: 1 amine (or outer) side, 2 acyl side, 3 side chain; on linkers, the order of the positions; unused ones are H or OH. Bridge positions count the residues as written; N and C are the ends. Square brackets hold non-standard residues; d marks the D form. Ends that are not written are not given here. Peptide text beside a SMILES is read from it. CO = O=C([*:1])[*:2]; Nlys = NCCCCNCC(=O)O

As to `C[C@H](NC(=O)CN1CCCCNC(=O)NCCCCN(C(=O)[C@@H](N)Cc2c[nH]c3ccccc23)CC(=O)N[C@@H](CCC(N)=O)C(=O)N[C@@H](CCCCN)C(=O)N[C@@H](CCCNC(=N)N)C1=O)C(N)=O` [c(HS4-4)] (H-W[Nlys]QKR[Nlys]A-NH2; linker 2-6 via CO), the “stability towards trypsin/chymotrypsin degradation (HPLC)” value with trypsin and chymotrypsin [1] (4 hours of incubation, 37° C., pH 8) is “completely stable”. Besides, the “cleavage fragments in MS analysis” value in the data set with trypsin and chymotrypsin [1] (after trypsin/chymotrypsin incubation) is on record as “no fragments were observed”.

H-KDLLEQRRAAVDTYC-NH2 [65-79*0404]: the “degradation by trypsin/chymotrypsin (HPLC)” value with trypsin and chymotrypsin [2] is listed as “degraded completely”.

As to “c(HS6-2): cyclic analog named only in b214; probably a misprint of c(HS2-4) (QRRAA; bridge (positions not given here) via CO; also: urea backbone cyclisation, places not given here)”, the “potency in activating NO production (in words)” value in data set [3] is “potent analogs”.

As for `C=C(C)CCOP(=O)(O)OP(=O)(O)O` [IPP, Isopentenyl diphosphate], in data set [4], the IC50 was 17 pM.

Take “H-Lys-Asp-Ile-Leu-Glu-Asp-Glu-Arg-Ala-Ala-Val-Asp-Thr-Tyr-Cys-NH2 (H-KDILEDERAAVDTYC-NH2) [65-79*0402, reference compound]”: the IL-6 production result with CD8+ and CD8− DC is “did not trigger any increased production; also recorded: did not trigger any cytokine production”. In the data set with Th17 cells, the “Th17 abundance in draining lymph nodes” value is “no effect”.
